Measurements taken from US11497710B2, “Eye drop formulation and method for sustained delivery of medicament to the retina” (Chibi, Inc., priority 2018, dated 2022).

What was measured:
[1] = Vitamin E acetate in rabbit tear samples after single 50 μL instillation; assay type: in vivo
Method: Subsequently, tear samples were collected using filter paper strips, and the vitamin E acetate contained in the paper strips extracted using methanol. The amount of vitamin E acetate in the methanol extracts was analyzed using LC/MS/MS by known methods.

[2] = Vitamin E acetate in rabbit aqueous humor samples; assay type: in vivo; conditions: days 1, 4, 7, 12; quantification limit 1.0 ng/mL

Time vitamin E acetate present in tears of rabbit eyes [1]: at least 12 days | concentration at 1 day ([1]; rabbit, tears, topical, Day 1): 5250 ng/mL | concentration at 4 day ([1]; rabbit, tears, topical, Day 4): 114 ng/mL | concentration at 7 day ([1]; rabbit, tears, topical, Day 7): 98.6 ng/mL | concentration at 12 day ([1]; rabbit, tears, topical, Day 12): 27.4 ng/mL | Vitamin E acetate in aqueous humor samples [2]: No detectable
SMILES: CC(=O)Oc1c(C)c(C)c2c(c1C)CC[C@@](C)(CCC[C@H](C)CCC[C@H](C)CCCC(C)C)O2 [Vitamin E acetate, [(2R)-2,5,7,8-tetramethyl-2-[(4R,8R)-4,8,12-trimethyltridecyl]chroman-6-yl] acetate]
